Experimental data reported in US20250017935A1, “7,8-DIHYDRO-5H-1,6-NAPHTHYRIDINE DERIVATIVES AS POSITIVE ALLOSTERIC MODULATORS OF THE MUSCARINIC ACETYLCHOLINE RECEPTOR M4 FOR TREATING NEUROLOGICAL AND PSYCHIATRIC DISORDERS” (Vanderbilt University, priority 2021, published 2025).

Target: T1, Human M4 (Homo sapiens, UniProt P08173)
T1 construct: expressed in transfected cells; host or cells: CHO-K1 (ATCC), stably expressing hM4 and Gqi5
T1 sequence (P08173 1-479): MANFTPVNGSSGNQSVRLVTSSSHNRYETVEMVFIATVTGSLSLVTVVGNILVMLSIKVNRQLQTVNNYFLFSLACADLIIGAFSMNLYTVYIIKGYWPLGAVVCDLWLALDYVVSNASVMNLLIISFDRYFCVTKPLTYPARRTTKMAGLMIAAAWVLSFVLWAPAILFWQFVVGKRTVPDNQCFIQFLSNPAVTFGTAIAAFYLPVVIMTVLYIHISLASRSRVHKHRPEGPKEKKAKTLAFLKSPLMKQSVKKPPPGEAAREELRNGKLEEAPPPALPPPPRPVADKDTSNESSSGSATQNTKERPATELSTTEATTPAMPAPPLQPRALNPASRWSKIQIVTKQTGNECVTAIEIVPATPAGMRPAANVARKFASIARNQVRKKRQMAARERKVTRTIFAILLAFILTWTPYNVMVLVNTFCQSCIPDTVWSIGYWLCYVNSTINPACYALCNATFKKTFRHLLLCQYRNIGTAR
Assay: mAChR M4 cell-based functional assay (calcium flux, potentiation of EC20 acetylcholine response) in hM4-Gqi5 CHO-K1 cells
Conditions: for Emax at 30 µM: % ACh maximum at 30 μM, human M4 CHO-K1 cells; for EC50: CHO-K1 cells transfected with human M4 and Gqi5, positive allosteric modulator activity, EC20 acetylcholine
Protocol: Human M4 cDNA, along with the chimeric G protein Gqi5, were transfected into Chinese hamster ovary (CHO-K1) cells purchased from the American Type Culture Collection using commercially available Lipofectamine 2000 transfection reagent (Dalby, B. et al., Methods (2004) 33(2), 95-103). hM4-Gqi5 cells were grown in Ham's F-12 medium containing 10% heat-inactivated fetal bovine serum (FBS), 20 mM HEPES, 50 μg/mL G418 sulfate (CAS #108321-42-2), and 500 μg/mL Hygromycin B. rM4-Gqi5 cells were grown in DMEM containing 10% heat-inactivated FBS, 20 mM HEPES, 400 μg/mL G418 sulfate, and 500 μg/mL Hygromycin B.
For high throughput measurement of agonist-evoked increases in intracellular calcium, CHO-K1 cells stably expressing muscarinic receptors were plated in growth medium lacking G418 sulfate and hygromycin at 15,000 cells/20 μL/well in Greiner 384-well black-walled, tissue culture (TC)-treated, clear-bottom plates (VWR). Cells were incubated overnight at 37° C. and 5% CO2. The next day, cells were washed using an ELX 405 (BioTek) with assay buffer; the final volume was then aspirated to 20 μL. Next, 20 μL of a 2.3 μM stock of Fluo-4/acetoxymethyl ester (Invitrogen, Carlsbad, CA), prepared as a 2.3 mM stock in DMSO and mixed in a 1:1 ratio with 10% (w/v) Pluronic F-127 and diluted in assay buffer, was added to the wells and the cell plates were incubated for 50 minutes at 37° C. and 5% CO2. Dye was removed by washing with the ELX 405 and the final volume was aspirated to 20 μL. Compound master plates were formatted in an 11 point concentration-response curve (CRC) format (1:3 dilutions) in 100% DMSO with a starting concentration of 10 mM using a BRAVO liquid handler (Agilent). Test compound CRCs were then transferred to daughter plates (240 nL) using the Echo acoustic plate reformatter (Labcyte, Sunnyvale, CA) and then diluted into assay buffer (40 μL) to a 2× stock using a Thermo Fisher Combi (Thermo Fisher Scientific, Waltham, MA).
Calcium flux was measured using the Functional Drug Screening System (FDSS) 6000 or 7000 (Hamamatsu Corporation, Tokyo, Japan) as an increase in the fluorescent static ratio. Compounds were applied to cells (20 μL, 2×) using the automated system of the FDSS at 2-4 seconds into the protocol and the data were collected at 1 Hz. […] Agonist activity was analyzed as a concentration-dependent increase in calcium mobilization upon compound addition. Positive allosteric modulator activity was analyzed as a concentration-dependent increase in the EC20 acetylcholine response. With the acetylcholine EC20 set as baseline, the test compound EC50 is determined as the concentration that produces an increase above baseline of 50% of the maximum increase in acetylcholine response elicted by the test compound. Antagonist activity was analyzed as a concentration-dependent decrease in the EC80 acetylcholine response. Concentration-response curves were generated using a four-parameter logistical equation in XLFit curve fitting software (IDBS, Bridgewater, NJ) for Excel (Microsoft, Redmond, WA) or Prism (GraphPad Software, Inc., San Diego, CA).
Compounds were synthesized as described above. Activity (EC50 and Emax) was determined in the mAChR M4 cell-based functional assay as described above and the data are shown in Table 5. The compound numbers correspond to the compound numbers used in Examples 1-13 and Tables 1, 2, and 3.

For `Cc1coc2ncnc(N3CCc4ncc(N5CCOc6ncccc65)cc4C3)c12` [Compound 47, 1-[6-(5-methylfuro[2,3-d]pyrimidin-4-yl)-7,8-dihydro-5H-1,6-naphthyridin-3-yl]-2,3-dihydropyrido[2,3-b][1,4]oxazine], the Emax at 30 µM was 125% and the EC50 was 50 nM.
Compound `Cc1cc2c(N3CCc4ncc(-c5cn(C)nc5C)cc4C3)ncnc2s1` [Compound 12, 4-[3-(1,3-dimethylpyrazol-4-yl)-7,8-dihydro-5H-1,6-naphthyridin-6-yl]-6-methyl-thieno[2,3-d]pyrimidine] has an Emax at 30 µM of 74% and an EC50 of 230 nM.
Work on `Cc1ncc(-c2cnc3c(c2)CN(c2ncnc4c(C)csc24)CC3)s1` [Compound 5, 7-methyl-4-[3-(2-methylthiazol-5-yl)-7,8-dihydro-5H-1,6-naphthyridin-6-yl]thieno[3,2-d]pyrimidine] yielded an Emax at 30 µM of 35% and an EC50 of 310 nM.
`Cc1ncc(-c2cnc3c(c2)CN(c2ncnc4sccc24)CC3)s1` [Compound 6, 4-[3-(2-methylthiazol-5-yl)-7,8-dihydro-5H-1,6-naphthyridin-6-yl]thieno[2,3-d]pyrimidine] showed an Emax at 30 µM of 45% and an EC50 of 100 nM.
`Clc1nc2c(c(N3CCc4ncc(C5CC5)cc4C3)n1)COC2` [Compound 66, 2-chloro-4-(3-cyclopropyl-7,8-dihydro-1,6-naphthyridin-6(5H)-yl)-5,7-dihydrofuro[3,4-d]pyrimidine] gave an Emax at 30 µM of 54% and an EC50 of 580 nM.
Compound `Cc1coc2ncnc(N3CCc4ncc(N5CCCn6nccc65)cc4C3)c12` [Compound 42, 4-[3-(6,7-dihydro-5H-pyrazolo[1,5-a]pyrimidin-4-yl)-7,8-dihydro-5H-1,6-naphthyridin-6-yl]-5-methyl-furo[2,3-d]pyrimidine] has an Emax at 30 µM of 99% and an EC50 of 10 nM.
Compound `FC(F)(F)c1cnc2c(c1)CN(c1nc(Cl)nc3c1COC3)CC2` [Compound 62, 2-chloro-4-[3-(trifluoromethyl)-7,8-dihydro-5H-1,6-naphthyridin-6-yl]-5,7-dihydrofuro[3,4-d]pyrimidine] has an Emax at 30 µM of 58% and an EC50 of 3290 nM.
In the case of `Cc1ccc(Oc2cnc3c(c2)CN(c2ncnc4scc(C)c24)CC3)c(F)c1` [Compound 19, 4-[3-(2-fluoro-4-methyl-phenoxy)-7,8-dihydro-5H-1,6-naphthyridin-6-yl]-5-methyl-thieno[2,3-d]pyrimidine], the Emax at 30 µM is reported as 58% and the EC50 is reported as 1840 nM.
`Cc1coc2ncnc(N3CCc4ncc(-c5cnn(C6CC6)c5)cc4C3)c12` [Compound 38, 4-[3-(1-cyclopropylpyrazol-4-yl)-7,8-dihydro-5H-1,6-naphthyridin-6-yl]-5-methyl-furo[2,3-d]pyrimidine] gave an Emax at 30 µM of 83% and an EC50 of 60 nM.
For `Cc1cc2c(N3CCc4ncc(C(F)(F)F)cc4C3)ncnc2s1` [Compound 9, 6-methyl-4-[3-(trifluoromethyl)-7,8-dihydro-5H-1,6-naphthyridin-6-yl]thieno[2,3-d]pyrimidine], the Emax at 30 µM was 76% and the EC50 was 30 nM.
In the case of `FC(F)(F)c1cnc2c(c1)CN(c1ncnc3ccsc13)CC2` [Compound 10, 4-[3-(trifluoromethyl)-7,8-dihydro-5H-1,6-naphthyridin-6-yl]thieno[3,2-d]pyrimidine], the Emax at 30 µM is reported as 79% and the EC50 is reported as 120 nM.
`C[C@@H]1CN(c2cnc3c(c2)CN(c2nc(Cl)nc4c2COC4)CC3)CCO1` [Compound 65, (R)-2-chloro-4-(3-(2-methylmorpholino)-7,8-dihydro-1,6-naphthyridin-6(5H)-yl)-5,7-dihydrofuro[3,4-d]pyrimidine] showed an Emax at 30 µM of 35% and an EC50 of 3260 nM.
`FC(F)(F)c1cnc2c(c1)CN(c1nc(Cl)nc3c1CCC3)CC2` [Compound 57, 6-(2-chloro-6,7-dihydro-5H-cyclopenta[d]pyrimidin-4-yl)-3-(trifluoromethyl)-7,8-dihydro-5H-1,6-naphthyridine] gave an Emax at 30 µM of 69% and an EC50 of 100 nM.
For `Cc1cc2c(N3CCc4ncc(-c5cnn(C6CC6)c5)cc4C3)ncnc2s1` [Compound 20, 4-[3-(1-cyclopropylpyrazol-4-yl)-7,8-dihydro-5H-1,6-naphthyridin-6-yl]-6-methyl-thieno[2,3-d]pyrimidine], the Emax at 30 µM was 91% and the EC50 was 470 nM.
`Cc1nn(C)cc1-c1cnc2c(c1)CN(c1ncnc3c(C)csc13)CC2` [Compound 23, 4-[3-(1,3-dimethylpyrazol-4-yl)-7,8-dihydro-5H-1,6-naphthyridin-6-yl]-7-methyl-thieno[3,2-d]pyrimidine] showed an Emax at 30 µM of 59% and an EC50 of 560 nM.
Compound `Cc1ncc(-c2cnc3c(c2)CN(c2ncnc4onc(C)c24)CC3)s1` [Compound 52, 3-methyl-4-[3-(2-methylthiazol-5-yl)-7,8-dihydro-5H-1,6-naphthyridin-6-yl]isoxazolo[5,4-d]pyrimidine] has an Emax at 30 µM of 92% and an EC50 of 550 nM.
`Cc1coc2ncnc(N3CCc4ncc(-c5ccnn5C)cc4C3)c12` [Compound 56, 5-methyl-4-[3-(2-methylpyrazol-3-yl)-7,8-dihydro-5H-1,6-naphthyridin-6-yl]furo[2,3-d]pyrimidine] was tested, and the Emax at 30 µM was 74% and the EC50 was 80 nM.
`Cc1ccc(-c2cnc3c(c2)CN(c2ncnc4c(C)csc24)CC3)cn1` [Compound 15, 7-methyl-4-[3-(6-methyl-3-pyridyl)-7,8-dihydro-5H-1,6-naphthyridin-6-yl]thieno[3,2-d]pyrimidine] was tested, and the Emax at 30 µM was 45% and the EC50 was 550 nM.
`Cc1nn(C)cc1-c1cnc2c(c1)CN(c1ncnc3onc(C)c13)CC2` [Compound 43, 4-[3-(1,3-dimethylpyrazol-4-yl)-7,8-dihydro-5H-1,6-naphthyridin-6-yl]-3-methyl-isoxazolo[5,4-d]pyrimidine] showed an Emax at 30 µM of 80% and an EC50 of 590 nM.
Work on `Cc1csc2ncnc(N3CCc4ncc(C(F)(F)F)cc4C3)c12` [Compound 8, 5-methyl-4-[3-(trifluoromethyl)-7,8-dihydro-5H-1,6-naphthyridin-6-yl]thieno[2,3-d]pyrimidine] yielded an Emax at 30 µM of 78% and an EC50 of 30 nM.
`Cc1csc2ncnc(N3CCc4ncc(N5CCOc6ncccc65)cc4C3)c12` [Compound 16, 1-[6-(5-methylthieno[2,3-d]pyrimidin-4-yl)-7,8-dihydro-5H-1,6-naphthyridin-3-yl]-2,3-dihydropyrido[2,3-b][1,4]oxazine] showed an Emax at 30 µM of 91% and an EC50 of 60 nM.
For `Cc1nc(N2CCc3ncc(C(F)(F)F)cc3C2)c2c(C)c(C)sc2n1` [Compound 7, 2,5,6-trimethyl-4-[3-(trifluoromethyl)-7,8-dihydro-5H-1,6-naphthyridin-6-yl]thieno[2,3-d]pyrimidine], the Emax at 30 µM was 88% and the EC50 was 3280 nM.
In the case of `Clc1nc2c(c(N3CCc4ncc(N5CCOc6ncccc65)cc4C3)n1)COC2` [Compound 63, 1-[6-(2-chloro-5,7-dihydrofuro[3,4-d]pyrimidin-4-yl)-7,8-dihydro-5H-1,6-naphthyridin-3-yl]-2,3-dihydropyrido[2,3-b][1,4]oxazine], the Emax at 30 µM is reported as 56% and the EC50 is reported as 370 nM.
